Test results: US11311530B2, “Lewy body disease therapeutic agent containing pyrazoloquinoline derivative” (Eisai R&D Management Co., Ltd., priority 2017, dated 2022)

Assays:
[1] = target: phosphodiesterase 9 (PDE9) (Homo sapiens, UniProt O76083); conditions: from Patent Literature 1; cited from earlier work
[2] = test system: rat with scopolamine-induced cognitive impairment; experiment: Novel object recognition test using rats with scopolamine-induced cognitive impairment; format: in vivo; conditions: for percentage of exploration of the novel object during T2: scopolamine 0.7 mg/kg s.c., male Long Evans rats, mean ± standard error
Method: A novel object recognition test using rats with scopolamine-induced cognitive impairment was performed to confirm the effect of improving cognitive impairment induced by an acetylcholine nerve disorder. The novel object recognition test is a test system for assessing cognitive function based on the spontaneous behavioral characteristic of a rodent in which the rodent spends more time exploring a novel object than a familiar object. The test method described in Ennacer etc. Behavioural Brain Research, 31 (1988) pp. 47-51 was partially modified and performed.
Six-week-old male Long Evans rats (the Institute for Animal Reproduction) were subjected to the test. For two days before the test, a process for habituating the rat to the experimental procedure was performed once daily. In the habituation process, administration of a vehicle to the rat was performed, and subsequently, the rat was placed in an empty test apparatus (40 cm×30 cm×H 45 cm) and allowed to explore for 3 minutes, was transferred into a waiting chamber (13 cm×30 cm×H 45 cm) for about 1 minute, and then was returned into the empty test apparatus again and allowed to stay for 5 minutes.
On the day of the test, an acquisition trial (T1) was performed. Compound (I) was administered orally by using a solution of 0.5% methylcellulose in 0.01 M hydrochloric acid as a vehicle 2 hours before T1. Scopolamine (Wako Pure Chemical Industries, Ltd.) was administered subcutaneously by using a saline as a vehicle at a dose of 0.7 mg/kg 30 minutes before T1. […] The behaviors of the rat during T1 and T2 were recorded by a digital video camera and the total exploration time for each object was measured manually using a stopwatch. […]
In the novel object recognition test, a percentage of exploration of the novel object during T2 is considered as an amnesia index that reflects discrimination between the familiar object and the novel object. The percentage of exploration of the novel object was calculated in accordance with the following equation. […]
The results were expressed as mean±standard error. […]

phosphodiesterase 9 (PDE9), sequence (O76083 whole entry): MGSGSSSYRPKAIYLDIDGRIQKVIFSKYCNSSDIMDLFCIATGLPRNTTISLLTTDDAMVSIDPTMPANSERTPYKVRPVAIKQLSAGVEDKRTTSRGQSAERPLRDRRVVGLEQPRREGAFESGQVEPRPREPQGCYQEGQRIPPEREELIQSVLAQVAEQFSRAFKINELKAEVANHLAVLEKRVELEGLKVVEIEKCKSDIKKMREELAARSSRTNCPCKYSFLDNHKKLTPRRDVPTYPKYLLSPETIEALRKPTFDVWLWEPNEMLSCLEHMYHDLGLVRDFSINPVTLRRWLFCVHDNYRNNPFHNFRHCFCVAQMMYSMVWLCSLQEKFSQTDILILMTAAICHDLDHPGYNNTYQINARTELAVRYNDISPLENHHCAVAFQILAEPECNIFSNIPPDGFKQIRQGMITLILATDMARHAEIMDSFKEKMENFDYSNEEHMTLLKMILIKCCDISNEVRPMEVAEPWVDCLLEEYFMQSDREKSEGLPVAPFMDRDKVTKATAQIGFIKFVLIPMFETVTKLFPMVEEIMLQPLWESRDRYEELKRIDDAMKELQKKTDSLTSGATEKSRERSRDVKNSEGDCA

SMILES: COc1ncc(C)c(-c2ccc3c(c2)[nH]c(=O)c2cnn([C@H]4CCOC4)c23)c1C [Compound (I), (S)-7-(2-methoxy-3,5-dimethylpyridin-4-yl)-1-(tetrahydrofuran-3-yl)-1H-pyrazolo[4,3-c]quinolin-4(5H)-one]
- PDE9 inhibitory action [1]: exhibits a PDE9 inhibitory action
- percentage of exploration of the novel object during T2 ([2]; 3.3 mg/kg orally 2 hours before T1): 68.5 ± 2.0 %
- percentage of exploration of the novel object during T2 ([2]; 10 mg/kg orally 2 hours before T1): 68.5 ± 1.6 %
- effect of improving the percentage of exploration of the novel object ([2]; at 3.3 mg/kg and 10 mg/kg, versus disease control group, Dunnett's test, p<0.05): significant effect of improving the percentage of exploration of the novel object
